Assay results: patent publication US9796753B2, “N-substituted indenoisoquinolines and syntheses thereof” (Purdue Research Foundation, priority 2005, dated 2017)
pIC50: −log10 of the molar value. Like-named read-outs stand apart in the source and are kept apart here.

Columns and labels:
[1] = tested on: CNS SF-539; test: COMPARE screening (NCI human cancer cell line screen), cytotoxicity GI50; assay type: cell-based
In short: (§1)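 Sulforhodamine B read-out after 48 h exposure over five log concentrations (0.01-100 μM) in the NCI 60-cell-line panel. GI50 derived from percentage growth, as OD ratio to control, versus log10 concentration.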

[2] = tested on: colon HCT-116; test: as above; assay type: cell-based
In short: as §1

[3] = tested on: lung HOP-62; test: as above; assay type: cell-based
In short: as §1

[4] = tested on: melanoma UACC-62; test: as above; assay type: cell-based
In short: as §1

[5] = tested on: ovarian OVCAR-3; test: as above; assay type: cell-based
In short: as §1

[6] = tested on: prostate DU-145; test: as above; assay type: cell-based
In short: as §1

[7] = tested on: renal SN12C; test: as above; assay type: cell-based
In short: as §1

[8] = tested on: breast MDA-MB-435; test: as above; assay type: cell-based
[9] = tested on: all human cancer cell lines successfully tested; test: NCI screen mean graph midpoint (MGM) for growth inhibition; assay type: cell-based; details: for GI50: Homo sapiens, read-out: MGM GI50
In short: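 NCI60 panel cells exposed to compound at 100, 10, 1, 0.1 and 0.01 μM for 48 h, then sulforhodamine B staining. Percentage growth versus control plotted against log concentration; MGM is the midpoint across all lines tested.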

[10] = tested on: panel of twelve human tumor cell lines; test: Hollow fiber assay; assay type: in vivo; parameters: key to IP Score / SC score / Total score: 2 points each time viable cell mass falls ≥50% vs vehicle controls; details: for IP Score: intraperitoneal fibers in athymic nude mice, score 2 per 50% or greater reduction in viable cell mass; for IP Score / SC score: compounds IP once daily, four doses, two dose levels; for SC score: subcutaneous fibers in athymic nude mice; for Total score: sum of IP and SC scores
Procedure: Hollow Fiber Activity. […] The effects of the compounds on the reduction of viable cancer cell mass compared to those of controls were determined. Each compound was tested in the hollow fiber assay against a panel of twelve human tumor cell lines as described previously; see, Hollingshead, M.; Plowman, J.; Alley, M.; Mayo, J.; Sausville, E., The Hollow Fiber Assay. Contrib. Oncol. 1999, 54, 109-120; and Plowman, J.; Camalier, R.; Alley, M.; Sausville, E.; Schepartz, S. Contrib. Oncol. […] The compounds were solubilized in 10% DMSO in saline/Tween-80® and administered intraperitoneally once daily for a total of four doses at each of two dose levels. The two doses were selected based on single dose toxicity studies for each derivative. A score of 2 was assigned each time the compound produced a 50% or greater reduction in viable cell mass compared to vehicle-treated controls. The score for each compound was summed for the intraperitoneal fibers and the subcutaneous fibers to provide the total score for each derivative as shown in Table 3 and Table 4. For comparative purposes, the score for the clinically used anticancer drug paclitaxel is provided.

[11] = biological target: recombinant TDP1 (Homo sapiens, UniProt Q9NUW8); test: Gel-based assay measuring the inhibition of recombinant TDP1; assay type: biochemical; details: Table 7; scores correspond to IC50 ranges; read-out: TDP1 inhibition
Procedure: A 5′-[^32P]-labeled single-stranded DNA oligonucleotide containing a 3′-phosphotyrosine (N14Y) was generated as described by Dexheimer et al. (J. Med. Chem. 2009, 52, 7122-7131). The DNA substrate was then incubated with 5 μM recombinant TDP1 in the absence or presence of inhibitor for 15 min at room temperature in a buffer containing 50 mM Tris HCl, pH 7.5, 80 mM KCl, 2 mM EDTA, 1 mM DTT, 40 μg/ml BSA and 0.01% Tween-20. Reactions were terminated by the addition of 1 volume of gel loading buffer [99.5% (v/v) formamide, 5 mM EDTA, 0.01% (w/v) xylene cyanol, and 0.01% (w/v) bromophenol blue]. Samples were subjected to a 16% denaturing PAGE and gels were exposed after drying to a PhosphorImager screen (GE Healthcare). Gel images were scanned using a Typhoon 8600 (GE Healthcare) and densitometric analyses were performed using the ImageQuant software (GE Healthcare).
The TDP1 inhibitory activities of the O-2-substituted indenoisoquinolines were measured by determining their abilities to inhibit the hydrolysis of the phosphodiester linkage between tyrosine and the 3′-end of a DNA oligonucleotide substrate and thus prevent the generation of an oligonucleotide with a free 3′-phosphate (N14P, Scheme 13). Therefore, the disappearance of the gel band for N14P indicates TDP1 inhibition.
Tyrosyl-DNA phosphodiesterase 1 (TDP1) is a DNA repair enzyme that repairs cytotoxic DNA damage induced by Top1 inhibitors.

[12] = Table 1, concentration corresponding to 50% growth inhibition, read-out: cytotoxicity (GI50) ovarian OVCAR-3
[13] = Table 1, average GI50 of all cell lines tested (approximately 55), test range 10^−8 to 10^−4 molar
[14] = CNS SF-539, concentration corresponding to 50% growth inhibition, read-out: cytotoxicity (GI50 in μM) CNS SF-539
[15] = colon HCT-116, concentration corresponding to 50% growth inhibition, read-out: cytotoxicity (GI50 in μM) colon HCT-116
[16] = lung HOP-62, concentration corresponding to 50% growth inhibition, read-out: cytotoxicity (GI50 in μM) lung HOP-62
[17] = melanoma UACC-62, concentration corresponding to 50% growth inhibition, read-out: cytotoxicity (GI50 in μM) melanoma UACC-62
[18] = ovarian OVCAR-3, concentration corresponding to 50% growth inhibition, read-out: cytotoxicity (GI50 in μM) ovarian OVCAR-3
[19] = renal SN12C, concentration corresponding to 50% growth inhibition, read-out: cytotoxicity (GI50 in μM) renal SN12C
[20] = breast MDA-MB-435, concentration corresponding to 50% growth inhibition, read-out: cytotoxicity (GI50 in μM) breast MDA-MB-435
[21] = all human cancer cell lines successfully tested

recombinant TDP1, sequence (Q9NUW8 whole entry): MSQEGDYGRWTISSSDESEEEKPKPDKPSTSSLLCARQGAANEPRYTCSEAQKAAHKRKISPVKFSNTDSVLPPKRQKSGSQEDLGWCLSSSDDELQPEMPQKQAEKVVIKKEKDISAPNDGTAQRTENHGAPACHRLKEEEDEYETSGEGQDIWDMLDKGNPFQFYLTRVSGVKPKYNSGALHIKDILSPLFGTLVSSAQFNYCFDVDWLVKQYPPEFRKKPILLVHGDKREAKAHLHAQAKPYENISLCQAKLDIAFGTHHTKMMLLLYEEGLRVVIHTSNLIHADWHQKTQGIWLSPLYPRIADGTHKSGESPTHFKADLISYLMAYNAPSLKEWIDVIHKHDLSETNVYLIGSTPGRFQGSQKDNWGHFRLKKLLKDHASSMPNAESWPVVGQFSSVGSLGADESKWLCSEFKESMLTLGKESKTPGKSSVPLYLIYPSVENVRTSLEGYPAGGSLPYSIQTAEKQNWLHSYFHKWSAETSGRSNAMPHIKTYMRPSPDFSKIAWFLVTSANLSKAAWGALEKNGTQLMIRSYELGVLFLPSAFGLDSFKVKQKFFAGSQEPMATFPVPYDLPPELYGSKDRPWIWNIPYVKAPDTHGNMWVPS

| pIC50 [11] | Structure (SMILES) | GI50 [1] [µM] | GI50 [2] [µM] | GI50 [3] [µM] | GI50 [4] [µM] | GI50 [6] [µM] | GI50 [7] [µM] | GI50 [8] [µM] | GI50 [9] [nM] | other results |
| --- | --- | --- | --- | --- | --- | --- | --- | --- | --- | --- |
| – | COc1cc2c3c(n(CCCN4CCNCC4)c(=O)c2cc1OC)-c1cc2c(cc1C3=O)OCO2.Cl.Cl [Compound 5p, 6-(3-Piperazinyl-1-propyl)-5,6-dihydro-2,3-dimethoxy-8,9-methylenedioxy-5,11-dioxo-11H-indeno[1,2-c]isoquinoline Dihydrochloride] | < 0.005 | 0.575 | < 0.005 | 1.2 | 0.015 | 0.091 | 4.57 | – | GI50 [5, 12]: 2.04 µM; MGM (mean graph midpoint for growth inhibition) [9, 13]: 0.382 ± 0.119 µM; IP Score ([10]; Table 3): 16; SC score ([10]; Table 3): 2; Total score ([10]; Table 3): 18 |
| – | COc1cc2c3c(n(CCCN4CCCC(O)C4)c(=O)c2cc1OC)-c1cc2c(cc1C3=O)OCO2.Cl (stereo not shown) [Compound 5s, 6-[3-(3-Hydroxypiperidinyl)-1-propyl]-5,6-dihydro-2,3-dimethoxy-8,9-methylenedioxy-5,11-dioxo-11H-indeno[1,2-c]isoquinoline Hydrochloride] | < 0.005 | < 0.005 | < 0.005 | 5.01 | < 0.005 | 0.126 | 0.977 | – | GI50 [5, 12]: 5.75 µM; MGM (mean graph midpoint for growth inhibition) [9, 13]: 0.243 ± 0.088 µM; IP Score ([10]; Table 3): 6; SC score ([10]; Table 3): 0; Total score ([10]; Table 3): 6 |
| – | COc1cc2c3c(n(CCCN4CCCNCC4)c(=O)c2cc1OC)-c1cc2c(cc1C3=O)OCO2.Cl.Cl [Compound 5v, 6-(3-Homopiperazinyl-1-propyl)-5,6-dihydro-2,3-dimethoxy-8,9-methylenedioxy-5,11-dioxo-11H-indeno[1,2-c]isoquinoline Dihydrochloride] | 0.145 | 0.214 | < 0.005 | 0.457 | 0.081 | 0.145 | 2.63 | – | GI50 [5, 12]: 5.01 µM; MGM (mean graph midpoint for growth inhibition) [9, 13]: 0.715 ± 0.335 µM; IP Score ([10]; Table 3): 12; SC score ([10]; Table 3): 2; Total score ([10]; Table 3): 14 |
| – | COc1cc2c3c(n(CCCN4CCN(CCO)CC4)c(=O)c2cc1OC)-c1cc2c(cc1C3=O)OCO2 [Compound 5w, 3-[(1-Hydroxyethyl-piperazine)-1-propyl]-5,6-dihydro-2,3-dimethoxy-8,9-methylenedioxy-5,11-dioxo-11H-indeno[1,2-c]isoquinoline] | 1.44 | 2.34 | 9.77 | 1.23 | 0.275 | > 100 | > 100 | – | GI50 [5]: 15.1 µM; MGM (mean graph midpoint for growth inhibition) [9, 13]: 7.86 ± 0.27 µM; IP Score ([10]; Table 3): 8; SC score ([10]; Table 3): 0; Total score ([10]; Table 3): 8 |
| – | O=C(O)C(F)(F)F.O=C(O)C(F)(F)F.O=C1c2ccccc2-c2c1c1ccccc1c(=O)n2CCNCCCNCCn1c2c(c3ccccc3c1=O)C(=O)c1ccccc1-2 [Compound 14d, Bis-1,3-{(5,6-dihydro-5,11-diketo-11H-indeno[1,2-c]isoquinoline)-6-ethylamino}propane Bis(trifluoroacetate)] | – | – | – | – | – | – | – | – | GI50 [1, 14]: 0.155 µM; GI50 [2, 15]: < 0.005 µM; GI50 [3, 16]: 0.339 µM; GI50 [4, 17]: 0.182 µM; GI50 [5, 18]: 0.093 µM; GI50 ([6]; prostate DU-145, concentration corresponding to 50% growth inhibition, read-out: cytotoxicity (GI50 in μM) prostate DU-145): 0.079 µM; GI50 [7, 19]: < 0.005 µM; GI50 [8, 20]: 0.024 µM; MGM (mean graph midpoint for growth inhibition) [9, 21]: 0.122 ± 0.064 µM; IP Score ([10]; Table 4): 2; SC score ([10]; Table 4): 4; Total score ([10]; Table 4): 6 |
| – | O=C(O)C(F)(F)F.O=C(O)C(F)(F)F.O=C1c2ccccc2-c2c1c1ccccc1c(=O)n2CCCNCCCNCCCn1c2c(c3ccccc3c1=O)C(=O)c1ccccc1-2 [Compound 14g, Bis-1,3-{(5,6-dihydro-5,11-diketo-11H-indeno[1,2-c]isoquinoline)-6-propylamino}propane Bis(trifluoroacetate)] | – | – | – | – | – | – | – | – | GI50 [1, 14]: 0.011 µM; GI50 [2, 15]: < 0.01 µM; GI50 [3, 16]: < 0.01 µM; GI50 [4, 17]: 0.042 µM; GI50 [5, 18]: 0.074 µM; GI50 [7, 19]: < 0.01 µM; GI50 [8, 20]: 0.107 µM; MGM (mean graph midpoint for growth inhibition) [9, 21]: 0.394 ± 0.33 µM; IP Score ([10]; Table 4): 26; SC score ([10]; Table 4): 6; Total score ([10]; Table 4): 32 |
| – | O=C(O)C(F)(F)F.O=C(O)C(F)(F)F.O=C1c2ccccc2-c2c1c1ccccc1c(=O)n2CCCNCCCCNCCCn1c2c(c3ccccc3c1=O)C(=O)c1ccccc1-2 [Compound 14h, Bis-1,4-{(5,6-dihydro-5,11-diketo-11H-indeno[1,2-c]isoquinoline)-6-propylamino}butane Bis(trifluoroacetate)] | 0.251 | < 0.005 | 0.525 | 0.562 | 0.234 | < 0.005 | 0.676 | – | GI50 [5]: 0.135 µM; MGM (mean graph midpoint for growth inhibition) [9, 21]: 0.225 ± 0.084 µM; IP Score ([10]; Table 4): 12; SC score ([10]; Table 4): 4; Total score ([10]; Table 4): 16 |
| – | O=C(O)C(F)(F)F.O=C(O)C(F)(F)F.O=C(O)C(F)(F)F.O=C1c2ccccc2-c2c1c1ccccc1c(=O)n2CCNCCNCCNCCn1c2c(c3ccccc3c1=O)C(=O)c1ccccc1-2 [Compound 14i, Bis{(5,6-dihydro-5,11-diketo-11H-indeno[1,2-c]isoquinoline)-6-ethylamino-ethyl}amine Tris(trifluoroacetate)] | 0.275 | 0.112 | 0.048 | 0.269 | 0.331 | 0.017 | 1 | – | GI50 [5]: 1.15 µM; MGM (mean graph midpoint for growth inhibition) [9, 21]: 0.474 ± 0.143 µM; IP Score ([10]; Table 4): 10; SC score ([10]; Table 4): 6; Total score ([10]; Table 4): 16 |
| < 3.95 | O=C1c2cc3c(cc2-c2c1c1ccc(F)cc1c(=O)n2CCCn1ccnc1)OCO3 [Compound 36] | – | – | – | – | – | – | – | 11 | – |
| < 3.95 | O=C1c2cc3c(cc2-c2c1c1ccc(F)cc1c(=O)n2CCCN1CCOCC1)OCO3 [Compound 37] | – | – | – | – | – | – | – | – | – |
| 4.92 to 6.00 | O=C1c2cc3c(cc2-c2c1c1ccc(F)cc1c(=O)n2CCCNCCO)OCO3 [Compound 38] | – | – | – | – | – | – | – | 55 | – |
| 3.95 to 4.43 | O=C1c2cc3c(cc2-c2c1c1ccc(Cl)cc1c(=O)n2CCCn1ccnc1)OCO3 [Compound 39] | – | – | – | – | – | – | – | 24 | – |
| 4.92 to 6.00 | O=C1c2cc3c(cc2-c2c1c1ccc(Cl)cc1c(=O)n2CCCNCCO)OCO3 [Compound 41] | – | – | – | – | – | – | – | 229 | – |
| < 3.95 | O=C1c2cc3c(cc2-c2c1c1cc(F)c(F)cc1c(=O)n2CCCn1ccnc1)OCO3 [Compound 42] | – | – | – | – | – | – | – | 30 | – |
